Test systems include ACHN renal; CAKI-1 renal; MCF7 breast; OVCAR-3 ovarian; SR leukemia; TK-10 renal; U251 CNS; UACC-62 melanoma.
Experiment in all cases: NCI-60 cell line screen, 48 h

The structures appear in SMILES notation. Values joined by “and” are separate entries in the source; they are usually repeats but may differ in a detail not shown here. Equal values may be shown once.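 Test compounds were applied to cells in 96-well plates for 48 hours at 5 doses. GI50 marks 50% less growth. TGI marks complete inhibition of growth.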

For the molecule `COc1cc([C@@H]2c3cc4c(cc3[C@H](OC(C)=O)[C@H]3COC(=O)[C@@H]23)OCO4)cc(OC)c1OC`, the GI50 is 0.766 µM in the experiment with ACHN renal; 0.537 µM in the experiment with CAKI-1 renal; 0.334 µM in the experiment on MCF7 breast; 0.317 µM in the experiment with OVCAR-3 ovarian; 0.153 µM in the experiment with SR leukemia; 0.377 µM with U251 CNS. Further, the GI50 in the experiment with UACC-62 melanoma is 0.405 µM. For the same molecule, the TGI in the experiment with ACHN renal, in the experiment on CAKI-1 renal, in the experiment with MCF7 breast, in the experiment on SR leukemia, with TK-10 renal and with U251 CNS was greater than 100 µM throughout. Moreover, the TGI in the experiment on UACC-62 melanoma was greater than 100 µM.

Take `ClCc1cccc(Cn2cnc3c(Cl)nc(Cl)nc32)c1`: the GI50 with ACHN renal was 1.91 µM; in the experiment on CAKI-1 renal, 2.22 µM; with MCF7 breast, 2.04 µM; with OVCAR-3 ovarian, 1.59 µM; in the experiment with SR leukemia, 2.49 µM; with TK-10 renal, 1.74 µM. In addition, the figures for the GI50 in the experiment with U251 CNS and with UACC-62 melanoma were 1.7 µM and 1.84 µM, respectively. Also, the TGI is 3.72 µM in the experiment with ACHN renal; 5.85 µM with CAKI-1 renal; 6.4 µM with MCF7 breast; 3.21 µM in the experiment with OVCAR-3 ovarian; greater than 100 µM in the experiment with SR leukemia; 3.95 µM in the experiment on TK-10 renal. The results for the TGI in the experiment on U251 CNS and in the experiment on UACC-62 melanoma were 3.09 µM and 3.44 µM, respectively.

As to `C=C(CN1CCc2c([nH]c3ccccc23)C1)c1ccc(C(=O)Nc2ccccc2N)cc1`, the GI50 in the experiment with ACHN renal was 1.74 µM; in the experiment with CAKI-1 renal, 1.67 µM; with MCF7 breast, 3.98 µM; in the experiment on OVCAR-3 ovarian it was 18.4 µM; with SR leukemia, 0.622 µM; with TK-10 renal, 2.6 µM. Also, the GI50 was 1.42 µM in the experiment with U251 CNS and 1.59 µM in the experiment on UACC-62 melanoma. In addition, the TGI in the experiment on ACHN renal amounted to 10.4 µM; with CAKI-1 renal it was 8.25 µM; with MCF7 breast, 22.9 µM; in the experiment with OVCAR-3 ovarian, 29.1 µM; in the experiment on SR leukemia, 50 µM; in the experiment with TK-10 renal it was 9.58 µM. Further, the figures for the TGI with U251 CNS and in the experiment on UACC-62 melanoma were 7.73 µM and 7.43 µM, respectively.

`N=c1ccc2nc3ccc(N)cc3sc-2c1`: the GI50 with ACHN renal was 8.55 µM; in the experiment with CAKI-1 renal, 4.19 µM; in the experiment with MCF7 breast it was 3.5 µM; in the experiment with OVCAR-3 ovarian, 3.21 µM; in the experiment on SR leukemia, 4.65 µM; in the experiment with TK-10 renal, 11.7 µM. Moreover, the GI50 with U251 CNS is 3.45 µM; in the experiment on UACC-62 melanoma it was 2.93 µM. Moreover, the TGI with ACHN renal is 23.2 µM; in the experiment with CAKI-1 renal, 20.3 µM; in the experiment with MCF7 breast, 13.1 µM; with OVCAR-3 ovarian, 13.7 µM; with SR leukemia it was greater than 100 µM; in the experiment with TK-10 renal, 35.5 µM. Besides, the TGI was 10.5 µM in the experiment with U251 CNS and 8.38 µM with UACC-62 melanoma.

In the case of `O=C(Nc1cccc2[nH]c(C(F)(F)F)nc12)c1cc(Cl)ccc1Cl`, the GI50 in the experiment with ACHN renal is 2.88 µM; with CAKI-1 renal, 2.7 µM; in the experiment on MCF7 breast, 2.81 µM; in the experiment with OVCAR-3 ovarian, 3.4 µM; with SR leukemia, 3.04 µM; in the experiment on TK-10 renal it was 4.17 µM. For the same molecule, the GI50 in the experiment with U251 CNS and with UACC-62 melanoma was 3.47 µM throughout. In addition, the TGI amounted to 16.6 µM with ACHN renal; 31.3 µM with CAKI-1 renal; 49.7 µM in the experiment on MCF7 breast; 10.3 µM in the experiment on OVCAR-3 ovarian; 8.96 µM in the experiment with SR leukemia; 36.2 µM in the experiment on TK-10 renal. Besides, the figures for the TGI in the experiment on U251 CNS and in the experiment with UACC-62 melanoma were 14.1 µM and 16.1 µM, respectively.

For the molecule `CC(=O)c1ccc2c(c1)N(CCCN1CCN(CCO)CC1)c1ccccc1S2`, the GI50 in the experiment with ACHN renal was 2.98 µM; in the experiment on CAKI-1 renal, 1.73 µM; with MCF7 breast, 1.78 µM; in the experiment on OVCAR-3 ovarian, 2.85 µM; in the experiment with SR leukemia it was 2.68 µM; in the experiment on TK-10 renal, 1.69 µM. Further, the figures for the GI50 with U251 CNS and in the experiment with UACC-62 melanoma were 1.94 µM and 1.88 µM, respectively. The TGI in the experiment on ACHN renal was 11.4 µM; in the experiment with CAKI-1 renal, 4.22 µM; with MCF7 breast, 3.52 µM; in the experiment with OVCAR-3 ovarian, 8.9 µM; in the experiment on SR leukemia, 6.92 µM; in the experiment on TK-10 renal, 3.6 µM. Moreover, the TGI was 4.06 µM in the experiment on U251 CNS and 3.83 µM with UACC-62 melanoma.

Consider `CCCCCCNCCCNc1c2cc(OC)ccc2nc2cccc([N+](=O)[O-])c12`, for which the GI50 with ACHN renal was 0.159 µM; with CAKI-1 renal, 0.24 µM; in the experiment with MCF7 breast, 0.0348 µM; with OVCAR-3 ovarian it was 0.309 µM; in the experiment with SR leukemia, 0.121 µM; with TK-10 renal, 0.322 µM. For the same molecule, the values for the GI50 with U251 CNS and with UACC-62 melanoma were 0.0407 µM and 0.186 µM, respectively. Further, the TGI is 1.54 µM and 0.535 µM in the experiment with ACHN renal; 0.797 µM and 0.748 µM with CAKI-1 renal; 0.398 µM in the experiment with MCF7 breast; 0.297 µM and 1.05 µM with OVCAR-3 ovarian; 0.387 µM and 0.875 µM in the experiment on TK-10 renal; 0.305 µM and 0.412 µM in the experiment with UACC-62 melanoma.

Regarding `COc1cc(OCc2cccc(-c3ccccc3)c2C)cc(OC)c1CN1CCCCC1C(=O)NCCOCCOCCN` (centres undefined), the GI50 with ACHN renal is 3.43 µM; in the experiment on CAKI-1 renal, 1.94 µM; in the experiment on MCF7 breast, 1.92 µM; in the experiment on OVCAR-3 ovarian, 2.11 µM; with SR leukemia, 1.74 µM; in the experiment on TK-10 renal, 2.48 µM. Also, the results for the GI50 in the experiment with U251 CNS and in the experiment with UACC-62 melanoma were 2.1 µM and 1.79 µM, respectively. The TGI in the experiment on ACHN renal came out at 13 µM; in the experiment on CAKI-1 renal it was 5.96 µM; in the experiment on MCF7 breast, 3.92 µM; in the experiment on OVCAR-3 ovarian, 5.03 µM; in the experiment on SR leukemia, 4.24 µM; with TK-10 renal it was 7.42 µM. The TGI in the experiment with U251 CNS is 4.44 µM; in the experiment on UACC-62 melanoma, 3.41 µM.

`COc1cc(F)ccc1-c1cc(Nc2cc(CS(C)(=N)=O)ccn2)ncc1F` (centres undefined): the GI50 with ACHN renal is 0.0371 µM; in the experiment with CAKI-1 renal it was 0.0438 µM; in the experiment on MCF7 breast it was 0.0391 µM; with OVCAR-3 ovarian it was 0.0803 µM; in the experiment with SR leukemia, 0.0174 µM; in the experiment on TK-10 renal it was 0.151 µM. For the same molecule, the GI50 with U251 CNS is 0.0683 µM; with UACC-62 melanoma it was 0.0555 µM. Moreover, the TGI was greater than 100 µM in the experiment with ACHN renal; greater than 100 µM in the experiment on CAKI-1 renal; greater than 100 µM in the experiment on MCF7 breast; greater than 100 µM with OVCAR-3 ovarian; 1.29 µM in the experiment on SR leukemia; greater than 100 µM in the experiment with TK-10 renal. In addition, the figures for the TGI in the experiment with U251 CNS and with UACC-62 melanoma were greater than 100 µM and 0.342 µM, respectively.

On to `C=CC(C)(C)n1cc(C2=C(O)C(=O)C(c3cn(C(C)(C)C=C)c4ccccc34)=C(O)C2=O)c2ccccc21`, for which the TGI is 12.9 µM in the experiment with ACHN renal; 6.56 µM with CAKI-1 renal; 12.4 µM in the experiment on MCF7 breast; 4.48 µM with OVCAR-3 ovarian; greater than 45 µM with SR leukemia; 10.9 µM in the experiment with TK-10 renal. The TGI in the experiment on U251 CNS worked out at 10.4 µM; in the experiment with UACC-62 melanoma, 4.33 µM.

For `Nc1c(C(=O)c2cccc(C#CCN3CCCCC3)c2)cnn1-c1ccc(F)cc1`, the GI50 is greater than 19.2 µM with ACHN renal; greater than 25 µM in the experiment on CAKI-1 renal; 19.1 µM in the experiment with MCF7 breast; greater than 25 µM in the experiment on OVCAR-3 ovarian; 14.2 µM in the experiment with SR leukemia; greater than 25 µM in the experiment on TK-10 renal. The GI50 with U251 CNS and in the experiment with UACC-62 melanoma was greater than 25 µM each time. Further, the TGI in the experiment on ACHN renal, with CAKI-1 renal, in the experiment with MCF7 breast, with OVCAR-3 ovarian, with SR leukemia and in the experiment on TK-10 renal was greater than 25 µM throughout. The TGI with U251 CNS and in the experiment with UACC-62 melanoma was greater than 25 µM each time.

In the case of `C/C(=C(/c1ccccc1)c1ccc(OCC(O)CNCCN2CCOCC2)cc1)c1ccccc1` (centres undefined), the GI50 was 3.31 µM in the experiment with ACHN renal; 1.67 µM in the experiment with CAKI-1 renal; 3.61 µM in the experiment with MCF7 breast; 2.43 µM in the experiment with OVCAR-3 ovarian; 1.66 µM in the experiment with SR leukemia; 2.69 µM with TK-10 renal. Also, the figures for the GI50 with U251 CNS and in the experiment on UACC-62 melanoma were 2.03 µM and 1.93 µM, respectively. Also, the TGI turned out to be 11.7 µM in the experiment with ACHN renal; 3.49 µM in the experiment with CAKI-1 renal; 10.2 µM in the experiment on MCF7 breast; 7.17 µM with OVCAR-3 ovarian; 4.02 µM in the experiment with SR leukemia; 7.93 µM in the experiment on TK-10 renal. Moreover, the TGI was found to be 4.52 µM with U251 CNS and 3.82 µM with UACC-62 melanoma.

As for `CCCc1nc(Cl)nc(Cl)c1Cl`, the TGI worked out at 1.62 µM with ACHN renal; 0.433 µM in the experiment on CAKI-1 renal; 1.52 µM with MCF7 breast; 0.534 µM in the experiment with OVCAR-3 ovarian; 0.529 µM in the experiment with SR leukemia; 4.71 µM in the experiment on TK-10 renal. In addition, the TGI in the experiment on U251 CNS is 2.05 µM; in the experiment with UACC-62 melanoma it was 2.07 µM.

On to `CCN1[C@@H](C(=O)NC23CCC(C(=O)O)(CC2)CC3)[C@H](c2cccc(Cl)c2F)[C@]2(C(=O)Nc3cc(Cl)ccc32)C12CCCCC2`, for which the GI50 was 0.0878 µM in the experiment with ACHN renal; less than 0.0149 µM with CAKI-1 renal; 0.0523 µM in the experiment with MCF7 breast; 2.53 µM in the experiment on OVCAR-3 ovarian; 0.0146 µM in the experiment with SR leukemia; 3.05 µM in the experiment with TK-10 renal. Also, the GI50 in the experiment on U251 CNS is 3.29 µM; in the experiment with UACC-62 melanoma it was 0.0372 µM. Moreover, the TGI in the experiment on ACHN renal worked out at 3.77 µM; in the experiment with CAKI-1 renal it was 0.817 µM; in the experiment on MCF7 breast, 3.97 µM; in the experiment with OVCAR-3 ovarian, 7.74 µM; in the experiment on SR leukemia it was 4.72 µM; in the experiment with TK-10 renal, 16.2 µM. The TGI in the experiment with U251 CNS was found to be 15.5 µM; with UACC-62 melanoma, 2.24 µM.

The values above are taken from PubChem BioAssay (NCI).
